The source of these data is publication PMC4916434, “Evaluation of the inhibition potential of plumbagin against cytochrome P450 using LC-MS/MS and cocktail approach” (Scientific Reports, 2016).

What all share (assay type): in vitro ADME
For one data set, the target named is T1, CYP2D6 (Homo sapiens, UniProt P10635).
T1 construct: consisting of pooled HLMs (0.5 mg/ml) or RLMs (1 mg/ml) and an NADPH-regenerating system; tissue Corning Gentest Corporation; host or cells: pooled human liver microsomes (n = 20)
T1 sequence (P10635 whole entry): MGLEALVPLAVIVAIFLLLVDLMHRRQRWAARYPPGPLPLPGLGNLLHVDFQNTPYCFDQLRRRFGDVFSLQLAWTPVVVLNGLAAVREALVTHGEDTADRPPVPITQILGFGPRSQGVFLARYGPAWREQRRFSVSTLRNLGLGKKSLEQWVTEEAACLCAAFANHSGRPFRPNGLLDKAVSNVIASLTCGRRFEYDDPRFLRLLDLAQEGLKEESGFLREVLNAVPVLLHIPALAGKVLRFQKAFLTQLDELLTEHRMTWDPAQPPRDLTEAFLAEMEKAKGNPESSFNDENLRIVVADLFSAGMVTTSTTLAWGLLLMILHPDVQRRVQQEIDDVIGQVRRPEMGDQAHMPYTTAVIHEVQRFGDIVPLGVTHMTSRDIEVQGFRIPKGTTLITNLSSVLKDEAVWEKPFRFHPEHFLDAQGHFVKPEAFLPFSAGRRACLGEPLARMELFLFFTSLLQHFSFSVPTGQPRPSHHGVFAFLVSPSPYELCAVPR
Briefly: CYP2D6 inhibition (dextromethorphan O-demethylation) in pooled human liver microsomes, cocktail LC-MS/MS. As for the experimental part: (§1) Microsomal incubation was carried out at 37 °C in a mixture of 200 μl in 0.05 M Tris/HCl buffer (pH 7.4) consisting of pooled HLMs (0.5 mg/ml) or RLMs (1 mg/ml) and an NADPH-regenerating system including MgCl2 (5 mM), G6P (10 mM), G6PDH (0.4 U/ml) and NADP (1 mM). Substrates were added into the incubation mixture and obtained the final concentrations (10 μM phenacetin for CYP1A2, 20 μM bupropion for CYP2B1/6, 20 μM tolbutamide for CYP2C9/11, 5 μM dextromethorphan for CYP2D1/6, 20 μM chlorzoxazone for CYP2E1 and 10 μM midazolam for CYP3A2/4), which were close to Km respectively. The proportion of organic solvent was not higher than 1% (v/v) in the incubation mixture. After pre-incubation for 5 min, the reaction was initiated by addition of NADP. Incubations were performed for 20 min, stopped by adding 200 μl ice-cold acetonitrile. And then 20 μl internal standard solution was added (3-acetamidophenol 2 μg/ml, chlorpropamide 2 μg/ml and mebendazole 2 μg/ml). The solution was mixed thoroughly for 3 min and centrifuged for 10 min at 16,000 × g at 4 °C. The supernatant (60 μl) was transferred to autosampler vials, and 2 μl was injected into LC-MS/MS system.
(§2) The IC50 (concentration of inhibitor to cause 50% inhibition of original enzyme activity) values were determined with the same incubation condition above. The specific concentrations of plumbagin were ranged from 0.1 μM to 50 μM. The IC50 values were calculated by plotting relative activities over the logarithm of plumbagin concentrations using GraphPad Prism 5.0 (GraphPad software Inc., CA, USA).
(§3) Cocktail probe substrates were then added and incubated for 20 min. Reactions were stopped with 200 μl ice-cold acetonitrile. The samples were treated according to the microsomal incubation method and then injected into LC-MS/MS for analysis.
(§4) Kinetic studies were performed for determining the types of inhibition on CYP by plumbagin. Pooled HLMs (0.5 mg/ml) or RLMs (1 mg/ml) with plumbagin (1 μM, 2 μM, 5 μM and 10 μM) were incubated in 0.05 M Tris/HCl buffer (pH 7.4) for 20 min at 37 °C. A series of concentrations for cocktail probe substrates were used: 2.5–20 μM phenacetin for CYP1A2; 5–40 μM bupropion for CYP2B1/6; 5–40 μM tolbutamide for CYP2C9/11; 1.25–10 μM dextromethorphan for CYP2D1/6; 5–40 μM chlorzoxazone for CYP2E1; 2.5–80 μM midazolam for CYP3A2; and 0.625–5 μM midazolam for CYP3A4. Enzyme kinetics as well as statistical analysis were performed using GraphPad Prism 5.0.
(§5) All data were presented as mean ± SD. The IC50 values were fitted by non-linear regression analysis using GraphPad Prism 5.0. The kinetic parameters were obtained by fitting velocity data to kinetic models (Michaelis-Menten) using GraphPad Prism 5.0. The Lineweaver-Burk Plot (the reciprocal of reaction velocities versus the reciprocal of substrates concentrations) was used to determine the quality of fit to a specific inhibition model. The inhibition constant (Ki) was obtained by a secondary plot using the slopes of the primary Lineweaver-Burk Plot (Km/Vmax versus inhibitor concentrations). αKi was obtained from a secondary plot using the y-intercepts of the Lineweaver-Burk plot (1/Vmax versus inhibitor concentrations). All results were analyzed in quadruplicate. One-way analysis of variance was used to estimate the significance of differences. There was statistical significance between control and test groups if p < 0.05.
On the technique in general: Liver microsomes are vesicles of endoplasmic reticulum, rich in cytochrome P450 enzymes.

A further data set deals with T2, CYP3A4 (Homo sapiens, UniProt P08684).
T2 construct: consisting of pooled HLMs (0.5 mg/ml) or RLMs (1 mg/ml) and an NADPH-regenerating system; tissue Corning Gentest Corporation; host or cells: pooled human liver microsomes (n = 20)
T2 sequence (P08684 whole entry): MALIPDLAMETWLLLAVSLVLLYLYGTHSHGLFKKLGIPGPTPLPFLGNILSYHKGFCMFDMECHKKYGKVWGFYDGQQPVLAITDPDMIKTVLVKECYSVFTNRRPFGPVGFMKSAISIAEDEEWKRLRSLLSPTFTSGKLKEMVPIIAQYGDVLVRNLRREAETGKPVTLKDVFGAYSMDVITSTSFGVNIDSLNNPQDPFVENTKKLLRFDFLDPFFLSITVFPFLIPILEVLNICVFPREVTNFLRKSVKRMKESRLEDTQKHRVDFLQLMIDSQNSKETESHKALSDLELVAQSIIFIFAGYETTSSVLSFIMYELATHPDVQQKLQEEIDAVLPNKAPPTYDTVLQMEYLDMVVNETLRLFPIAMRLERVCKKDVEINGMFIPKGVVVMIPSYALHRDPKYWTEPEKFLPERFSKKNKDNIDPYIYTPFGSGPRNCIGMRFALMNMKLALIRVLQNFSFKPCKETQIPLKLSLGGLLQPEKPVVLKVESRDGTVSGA
Description: biochemical. How it is done:
as §1, §2, §3, §4, §5

In the next data set the target is T3, CYP1A2 (Homo sapiens, UniProt P05177).
T3 construct: consisting of pooled HLMs (0.5 mg/ml) or RLMs (1 mg/ml) and an NADPH-regenerating system; tissue Corning Gentest Corporation; host or cells: pooled human liver microsomes (n = 20)
T3 sequence (P05177 1-516): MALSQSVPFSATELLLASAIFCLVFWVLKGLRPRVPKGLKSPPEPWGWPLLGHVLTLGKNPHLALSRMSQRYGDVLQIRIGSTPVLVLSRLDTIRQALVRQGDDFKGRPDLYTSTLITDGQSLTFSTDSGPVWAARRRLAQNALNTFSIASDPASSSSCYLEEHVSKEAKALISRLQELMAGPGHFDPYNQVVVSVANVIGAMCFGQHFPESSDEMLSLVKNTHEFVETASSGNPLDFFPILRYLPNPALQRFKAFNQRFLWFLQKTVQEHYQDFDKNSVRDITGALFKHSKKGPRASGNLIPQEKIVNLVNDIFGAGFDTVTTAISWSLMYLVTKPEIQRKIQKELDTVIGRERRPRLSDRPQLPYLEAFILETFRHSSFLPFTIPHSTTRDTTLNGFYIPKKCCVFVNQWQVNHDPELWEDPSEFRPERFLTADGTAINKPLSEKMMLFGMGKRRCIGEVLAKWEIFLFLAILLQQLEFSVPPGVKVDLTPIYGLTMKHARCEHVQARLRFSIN
Description: biochemical. How it is done: as §1, §2, §3, §4, §5

The target of the next data set is T4, CYP2B6 (Homo sapiens, UniProt P20813).
T4 construct: consisting of pooled HLMs (0.5 mg/ml) or RLMs (1 mg/ml) and an NADPH-regenerating system; tissue Corning Gentest Corporation; host or cells: pooled human liver microsomes (n = 20)
T4 sequence (P20813 1-491): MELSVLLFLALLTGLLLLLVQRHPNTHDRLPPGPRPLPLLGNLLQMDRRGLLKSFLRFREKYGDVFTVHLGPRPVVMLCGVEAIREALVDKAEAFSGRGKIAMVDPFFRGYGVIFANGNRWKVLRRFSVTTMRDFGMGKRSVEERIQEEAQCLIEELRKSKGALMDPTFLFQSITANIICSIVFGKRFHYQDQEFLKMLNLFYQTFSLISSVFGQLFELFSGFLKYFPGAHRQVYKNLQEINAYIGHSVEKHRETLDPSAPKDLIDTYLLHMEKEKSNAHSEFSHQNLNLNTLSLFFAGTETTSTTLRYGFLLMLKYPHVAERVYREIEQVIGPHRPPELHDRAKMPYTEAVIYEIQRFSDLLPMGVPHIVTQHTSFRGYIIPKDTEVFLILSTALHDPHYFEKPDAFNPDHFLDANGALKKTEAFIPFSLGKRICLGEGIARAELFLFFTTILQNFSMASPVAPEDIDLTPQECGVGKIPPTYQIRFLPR
Description: biochemical. How it is done: as §1, §2, §3, §4, §5

A word on the IC50: it is the midpoint of a concentration-inhibition curve. A high value points to lower potency. The Ki is the equilibrium dissociation constant of an inhibitor or competing ligand from its target. Lower therefore signals a stronger hold on the target.

Take `CC1=CC(=O)c2c(O)cccc2C1=O` [plumbagin, 5-hydroxy-2-methyl-1,4-naphthoquinone]: the IC50 was 10.2 µM against CYP2D6, 6.45 µM against CYP3A4, 7.49 µM against CYP1A2 and 13.1 µM against CYP2B6. In addition, the Type of inhibition entry at CYP2D6 is reported as “mixed-type”; at CYP3A4, “mixed-type”; at CYP1A2, “non-competitive”; on CYP2B6 it was “mixed-type”. Moreover, the Ki was determined as 1.46 µM on CYP2D6 (HLMs, secondary Lineweaver-Burk plot, dextromethorphan 1.25-10 μM); 0.88 µM on CYP3A4; 0.15 µM on CYP1A2; 1.62 µM at CYP2B6. In addition, the α is recorded as 0.66 at CYP2D6 (human, 20 min, pH 7.4); 1.54 on CYP3A4 (human, 20 min, pH 7.4); 0.94 at CYP1A2 (human, 20 min, pH 7.4); 0.55 on CYP2B6 (human, 20 min, pH 7.4). Also, the αKi at CYP2D6 (human, 20 min, pH 7.4) was determined as 2.22 µM; at CYP3A4 (human, 20 min, pH 7.4), 0.57 µM; at CYP1A2 (human, 20 min, pH 7.4), 0.16 µM; at CYP2B6 (human, 20 min, pH 7.4) it was 2.92 µM.
